{"source": "patent US20080267948A1", "about": "“Croos-B Structure Binding Compounds” (priority 2005, published 2008)", "key": {"[1]": {"biological_target": "T1, tPA/plasminogen (Homo sapiens, UniProt P00750)", "T1 construct": "purchased Boehringer Ingelheim Actilyse", "T1 sequence (P00750 36-562)": "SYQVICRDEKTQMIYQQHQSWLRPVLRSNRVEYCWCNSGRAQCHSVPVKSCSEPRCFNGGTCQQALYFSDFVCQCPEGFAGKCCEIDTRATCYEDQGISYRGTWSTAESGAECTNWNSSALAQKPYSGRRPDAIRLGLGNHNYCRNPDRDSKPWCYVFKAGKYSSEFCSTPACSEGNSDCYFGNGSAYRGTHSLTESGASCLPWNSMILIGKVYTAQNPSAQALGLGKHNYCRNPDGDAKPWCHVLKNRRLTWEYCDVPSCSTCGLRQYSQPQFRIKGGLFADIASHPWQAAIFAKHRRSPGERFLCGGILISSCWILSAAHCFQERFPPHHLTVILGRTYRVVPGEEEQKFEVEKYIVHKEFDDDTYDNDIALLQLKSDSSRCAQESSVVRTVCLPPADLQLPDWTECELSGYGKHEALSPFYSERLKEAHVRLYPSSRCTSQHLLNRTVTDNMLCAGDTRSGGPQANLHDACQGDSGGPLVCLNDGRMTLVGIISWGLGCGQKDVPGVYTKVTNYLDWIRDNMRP", "assay": "tPA/plasminogen activation by OVA heated in the presence of compounds (substrate PNAPEP1751)", "type": "biochemical", "conditions": "25 μg/ml OVA, 25 μg/ml compound, […] DMSO", "description": "Heated OVA, either in PBS/1% DMSO (positive control), or in the same buffer in the presence of 1 mg/ml of the compounds, was used 40-fold diluted in the assay. Negative control was buffer without OVA. […] In addition, it was assessed whether the compounds interfere with absorbance readings at 405 nm, with converted chromogenic substrate. […] The yellow solution is divided over wells of an ELISA plate. […] Signals are compared and related to the control."}, "[2]": {"system": "human blood platelets", "assay": "Platelet aggregation (aggregometric assay with washed platelets)", "type": "cell-based", "description": "The influence of amyloid-β(1-40) E22Q Dutch type (Aβ) peptide aggregates with cross-β structure conformation on blood platelet aggregation was tested with washed platelets in an aggregometric assay. Freshly drawn human aspirin free blood was mixed gently with citrate buffer to avoid coagulation. Blood was spinned for 15′ at 150*g at 20° C. and supernatant was collected; platelet rich plasma (PRP). […] After spinning down the platelets upon centrifugation for 15′ at 330*g at 20° C., the pellet was resuspended in HEPES-Tyrode buffer pH 6.5. Prostacyclin was added to a final concentration of 10 ng/ml, and the solution was centrifuged for 15′ at 330*g at 20° C., with a soft brake. The pellet was resuspended in HEPES-Tyrode buffer pH 7.2 in a way that the final platelet number was adjusted to 200,000/μl. Platelets were kept at 37° C. for at least 30′, before use in the assays, to ensure that they were in the resting state.\nAggregation of platelets was monitored in an aggregometer (Chrono-Log Corporation, Havertown, Pa., USA) for 15 minutes at 37° C. with a magnet stirring speed of 900 rpm. First, 270 μl of platelet solution was pipetted in the cuvettes and after 1 minute of stirring, 30 μl of preincubated (5 minutes, RT) Aβ and Hematein solution or control was added. The hematein stock was 10 mg/ml in HEPES-Tyrode buffer. The Aβ stock was 1 mg/ml. For blank readings unstirred HEPES Tyrode buffer was used. The aggregation is expressed as the percentage of the light transmission (0-100%). As a positive control, synthetic thrombin receptor activating peptide (TRAP) induced platelet aggregation was used. A control experiment was performed to study the influence of the red colour of hematein on the light transmission. For this, 4 μM TRAP was added at time 1 minute to the platelets, then hematein was added after 6 minutes of aggregation. The platelets were used for not more than 4 hours after isolation to reduce variations in sensitivity amongst subsequent measurements.\nEllagic acid was first dissolved to 100 mg/ml in DMSO, and then further diluted to 1 mg/ml in HBS buffer. Final concentrations of Aβ and ellagic acid in the aggregation assay were 50 μg/ml and 25/50 μg/ml, respectively. In addition, the influence of ellagic acid alone on platelet aggregation was tested. As a control, the influence of 0.08% DMSO on 50 μg/ml Aβ-induced platelet aggregation was analyzed. The 100% DMSO of the ellagic acid stock was diluted 2000 and 4000×, resulting in […] final DMSO concentrations in the aggregation assay."}, "[3]": {"biological_target": "T2, amyloid-β(1-40) E22Q (Homo sapiens, UniProt P05067, E693Q)", "T2 construct": "For similar ELISA's with DOVA and Aβ(1-40) E22Q, 1 μg/ml DOVA or Aβ was coated; purchased Peptide facility, Dutch Cancer Institute, Amsterdam; host or cells: synthetic peptide", "T2 sequence (P05067 672-711 E693Q)": "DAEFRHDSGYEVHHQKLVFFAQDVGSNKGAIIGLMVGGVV", "assay": "ELISA binding of tPA to immobilized Aβ after pre-incubation with compounds", "conditions": "Aβ first overlayed with compound (concentration series), then tPA", "description": "Compounds were now diluted 10× in PBS/0.1% Tween20 (500 μg/ml compound). […] With this approach a further selection of the compounds was achieved. Now, compounds that at least interact with HB-AGE are selected. With the selection, similar binding assays are performed with misfolded OVA and Aβ. Finally, concentration series of the selected compounds are used in the binding studies."}, "[4]": {"biological_target": "T3, Hb-AGE (Homo sapiens, UniProt P68871+P69905)", "T3 construct": "purchased Sigma-Aldrich H7379", "T3 sequence (P69905 2-142 limits assumed)": "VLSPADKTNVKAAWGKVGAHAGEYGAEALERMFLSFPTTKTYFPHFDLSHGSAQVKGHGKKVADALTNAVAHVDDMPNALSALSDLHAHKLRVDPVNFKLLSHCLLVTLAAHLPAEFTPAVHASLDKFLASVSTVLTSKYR", "T3 sequence (P68871 2-147 limits assumed)": "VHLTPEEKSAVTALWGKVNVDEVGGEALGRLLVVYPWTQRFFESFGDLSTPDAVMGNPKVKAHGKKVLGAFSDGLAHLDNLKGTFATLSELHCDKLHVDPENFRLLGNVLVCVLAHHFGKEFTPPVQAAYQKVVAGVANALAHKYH", "assay": "ELISA binding of tPA to immobilized Hb-AGE after pre-incubation with compounds", "conditions": "Hb-AGE first overlayed with compound (concentration series), then tPA", "description": "Compounds were now diluted 10× in PBS/0.1% Tween20 (500 μg/ml compound). […] With the selection, similar binding assays are performed with misfolded OVA and Aβ. Finally, concentration series of the selected compounds are used in the binding studies."}, "[5]": {"biological_target": "tPA (Homo sapiens, UniProt P00750)", "sequence (P00750 36-562)": "as the sequence (P00750 36-562) above", "assay": "tPA serine protease activity with OVA heated in the presence of compounds (substrate S-2765)", "type": "biochemical", "set-up": "purchased Boehringer Ingelheim Actilyse", "conditions": "OVA heated with 1 mg/ml compound, 80-, 160- or 320-fold diluted, 100 nM tPA", "description": "For this purpose, the influence of the compounds on heat-denaturation of OVA was analyzed (see above: Thioflavin T fluorescence measurements). Heated OVA at 1 mg/ml in PBS in the presence or absence of 1 mg/ml of the twelve compounds listed in Table 7 in PBS/DMSO (final DMSO concentration 1%) was used 80-fold or 160-fold or 320-fold diluted (final heated OVA concentration and compound concentration was 12.5 or 6.3 or 3.1 μg/ml; final DMSO concentration was 0.013% and 0.006% and 0.003%)."}, "[6]": {"biological_target": "T1, tPA/plasminogen", "assay": "tPA/plasminogen activation by pre-formed misfolded OVA in the presence of compounds", "type": "biochemical", "conditions": "80-fold or 160-fold diluted compound and misfolded OVA stocks of 1 mg/ml", "description": "[…] Negative control was buffer without OVA. […] In addition, it was assessed whether the compounds interfere with absorbance readings at 405 nm, with converted chromogenic substrate. […] The yellow solution is divided over wells of an ELISA plate. […] Signals are compared and related to the control."}, "[7]": {"biological_target": "T4, ovalbumin (Gallus gallus, UniProt P01012)", "T4 construct": "purchased Sigma A5503", "T4 sequence (P01012 1-386)": "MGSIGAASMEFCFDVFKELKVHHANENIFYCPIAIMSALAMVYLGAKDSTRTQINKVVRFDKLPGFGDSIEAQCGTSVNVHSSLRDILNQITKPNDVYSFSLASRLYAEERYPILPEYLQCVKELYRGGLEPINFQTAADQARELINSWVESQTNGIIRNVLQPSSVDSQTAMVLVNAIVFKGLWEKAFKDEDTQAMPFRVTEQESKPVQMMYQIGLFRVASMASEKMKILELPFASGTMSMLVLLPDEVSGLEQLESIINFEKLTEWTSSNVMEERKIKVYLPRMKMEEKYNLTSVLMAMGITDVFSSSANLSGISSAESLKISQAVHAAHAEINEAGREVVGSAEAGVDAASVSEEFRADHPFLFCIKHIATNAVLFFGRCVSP", "assay": "Transmission electron microscopy of ovalbumin heated in the presence of small compounds", "set-up": "species or system chicken", "conditions": "1 mg/ml ovalbumin heated with 1 mg/ml compound", "description": "For TEM analyses grids were prepared according to standard procedures. Ovalbumin samples at 1 mg/ml were applied to 100-mesh copper grids with carbon coated Formvar (Merck, Germany), and subsequently washed with PBS and H2O. Grids were applied to droplets of 2% (m/v) methylcellulose with 0.4% (m/v) uranylacetate pH 4. After a 2-minutes incubation grids were dried on a filter. Images were recorded at 80 kV, at suitable magnifications on a JEM-1200EX electron microscope (JEOL, Japan)."}, "[8]": {"biological_target": "T5, heat-denatured ovalbumin (Gallus gallus, UniProt P01012)", "T5 construct": "purchased Sigma A5503", "T5 sequence (P01012 1-386)": "T4 sequence (P01012 1-386)", "assay": "Thioflavin T fluorescence of ovalbumin and small compounds", "set-up": "species or system chicken", "conditions": "1 mg/ml compound, 1 mg/ml OVA", "description": "To establish the enhancement of Thioflavin T fluorescence by ovalbumin preparations, 90 μl of 25 μM ThT-solution in 50 mM Glycine buffer (pH 9.0) was added to 10 μl sample in duplicate wells of black 96-wells plates. Heat-denatured ovalbumin at 1 mg/ml in PBS with no addition, DMSO at a final concentration of 1% v/v, or 1 mg/ml of the compounds listed in Table 7, was used. Compound stocks are 100 mg/ml in DMSO. In addition, ovalbumin at 1 mg/ml with the same additions was first heat denatured and subsequently used in the fluorescence assay. Heat denaturation was according to the protocol given above. Fluorescence of duplicates was measured on a Thermo Fluoroskan Ascent 2.5, at 435 nm excitation and 485 nm emission wavelengths."}}, "note": "Entries after “also recorded” stand apart in the source; their conditions may differ."}
{"molecule": "O=C1C=C2CC3(O)COc4c(ccc(O)c4O)C3=C2C=C1O", "note": "(stereo not shown) [compound 152, Hematein]", "values": [{"measurement": "influence on tPA/plasminogen activation by OVA pre-heated in the presence of compound", "setting": "[1]", "result": "Inhibition of tPA/plasminogen activation by OVA pre-heated"}, {"measurement": "influence on Aβ induced platelet aggregation", "setting": "[2]; 100 μg/ml Aβ and 333 μg/ml haematein added together", "result": "almost completely blocked; also recorded: potent inhibitor of misfolded Aβ-induced platelet aggregation; also recorded: Inhibition of Aβ-induced platelet aggregation"}, {"measurement": "reduction of TRAP-induced platelet aggregation", "setting": "[2]; TRAP and haematein pre-mixed", "result": "approximately 10%"}, {"measurement": "influence on tPA binding to immobilized Aβ", "setting": "[3]", "result": "Stimulated tPA binding to immobilized misfolded protein (Aβ,"}, {"measurement": "influence on tPA binding to immobilized Hb-AGE", "setting": "[4]", "result": "Inhibited tPA binding to immobilized misfolded protein (Hb-"}, {"measurement": "influence on tPA protease activity of OVA heated in the presence of compound", "setting": "[5]", "result": "Potentiation of tPA protease activity"}, {"measurement": "influence on tPA/plasminogen activation by pre-formed misfolded OVA", "setting": "[6]", "result": "Full block of tPA/plasminogen activation by misfolded OVA"}, {"measurement": "appearance of ovalbumin heated in the presence of compound on TEM image", "setting": "[7]; listed as Haematein", "result": "No large aggregates. Small aggregates at a lower"}, {"measurement": "appearance of ovalbumin heated in the presence of compound on TEM image", "setting": "[7]; listed as haematein", "result": "less OVA aggregates after heating in the presence of the"}, {"measurement": "influence on Thioflavin T fluorescence with misfolded OVA", "setting": "[8]", "result": "Inhibition on Thioflavin T fluorescence with misfolded OVA"}]}
